“And” between values parts separate entries of the source, which are not always exact repeats. Equal entries are not always repeated.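 48-hour exposure; five concentrations; linearly interpolated endpoints. At the GI50, growth is halved. TGI denotes the concentration required for complete inhibition of growth.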 Bounds are passed on as bounds.

What all share (experiment): NCI anticancer screen, dose series, 48 h
The test system of test [1] is MCF7 breast.
Test [2] deals with SR leukemia.
For test [3], the system named is SNB-75 CNS.
Test [4] relates to SF-295 CNS.
Test [5] has as its system UO-31 renal.
In test [6] the test system is U251 CNS.
In test [7] the test system is OVCAR-3 ovarian.
Test [8] deals with SK-MEL-2 melanoma.

Consider `COc1ccc(-c2nc(N3CCN(C(=O)C4CCCCC4)CC3)c3c4c(sc3n2)CCCC4)cc1`, for which the GI50 was 82.9 µM in test [1]; above 100 µM in test [2]; 14.1 µM in test [3]; 26.2 µM in test [4]; 95.4 µM in test [5]; 37.9 µM in test [6]. For the same compound, in test [7], the GI50 was above 100 µM. The TGI in test [1] is above 100 µM; in test [2], above 100 µM; in test [3] it was 33.9 µM; in test [4], 85.1 µM; in test [5], above 100 µM; in test [6], above 100 µM. The compound also showed a TGI in test [7] above 100 µM.
With `C=C(C)[C@@H]1CC[C@]2(CO)CC[C@]3(C)[C@H](CC[C@@H]4[C@@]5(C)CCC(NCCc6ccc(O)cc6)C(C)(C)[C@@H]5CC[C@]43C)[C@@H]12` (some centres undefined), the GI50 in test [1] is 0.912 µM; in test [8], 1.68 µM; in test [2], 0.334 µM; in test [5], 1.32 µM; in test [6], 1.56 µM; in test [7], 1.69 µM. Also, the TGI in test [1] amounted to 2.57 µM; in test [8], 3.19 µM; in test [2], 1.07 µM; in test [5], 2.69 µM; in test [6], 2.98 µM; in test [7], 3.21 µM.
As for `O=C(/C(=C/c1ccc([N+](=O)[O-])cc1)SCc1ccc(F)cc1)c1ccc(Cl)cc1`, the GI50 was 13.8 µM in test [8]; 2.63 µM in test [2]; 73 µM in test [3]; 7.09 µM in test [4]; 3.6 µM in test [5]; 2.07 µM in test [6]. Further, the GI50 in test [7] is 3.06 µM. Moreover, the TGI in test [8] is 36.4 µM; in test [2], above 100 µM; in test [3], above 100 µM; in test [4], 25.1 µM; in test [5] it was 17.8 µM; in test [6], 4.02 µM. Moreover, the TGI in test [7] was found to be 10.6 µM.
Regarding `CCc1ccc2c(c1)N(CCO)C1=C(C(=O)OC1)C2c1cccc(Cl)c1` (centres undefined), the GI50 was 0.371 µM in test [8]; 0.445 µM in test [2]; 0.395 µM in test [3]; 0.382 µM in test [4]; 2.52 µM in test [5]; 0.499 µM in test [6]. Also, the GI50 in test [7] is 0.364 µM. In addition, the TGI in test [8] is 16.2 µM; in test [2] it was above 100 µM; in test [3] it was 14.6 µM; in test [4], 15.5 µM; in test [5] it was 20.9 µM; in test [6], 15.5 µM. Also, the TGI in test [7] is 1.68 µM.
With `O=C1c2ccccc2-c2c1c1c(O)cccc1n2-c1ccccc1`, the GI50 in test [1], in test [8], in test [2], in test [4], in test [5] and in test [6] was above 100 µM throughout. Moreover, the GI50 in test [7] is above 100 µM. In addition, the TGI in test [1], in test [8], in test [2], in test [4], in test [5] and in test [6] was above 100 µM throughout. The compound also came in with a TGI in test [7] above 100 µM.
In the case of `CN(C)CCOC(c1ccccc1)c1ccccc1`, the GI50 is 36.5 µM in test [1], 35.5 µM in test [8], 32.6 µM in test [5] and 36 µM in test [7]. Also, the TGI was 54 µM and > 100 µM in test [1]; 51.6 µM and > 100 µM in test [8]; above 100 µM in test [2]; 47.4 µM and > 100 µM in test [5]; 51.1 µM and > 100 µM in test [7].
Regarding `COc1ccc(CNc2nc3cc(N)cc(N)c3nc2-c2ccccc2)cc1`, the GI50 in test [1] was 13.2 µM; in test [8], 14.7 µM; in test [2], 4.09 µM; in test [4], 17.8 µM; in test [5] it was 11.4 µM; in test [6], 13.6 µM. Besides, in test [7], the GI50 was 2.23 µM. The TGI was 26.5 µM in test [1]; 29.1 µM in test [8]; above 100 µM in test [2]; 32.4 µM in test [4]; 28.7 µM in test [5]; 26.5 µM in test [6]. The same compound gave a TGI in test [7] of 7.77 µM.
As for `S=C(N/N=C(/c1ccccc1)c1ccccn1)N1CCCCCC1`, the GI50 was below 0.001 µM in test [1]; 0.0269 µM in test [8]; 0.66 µM in test [3]; 0.564 µM in test [4]; 0.00287 µM in test [6]; below 0.001 µM in test [7]. Besides, the TGI in test [1] was 0.194 µM and 1.56 µM; in test [8] it was 2.12 µM and 2.14 µM; in test [3] it was 2.04 µM and 1.95 µM; in test [4], 2.08 µM and 1.51 µM; in test [5], 1.75 µM; in test [6] it was 1.22 µM and 1.27 µM. In addition, the TGI in test [7] was 1.76 µM and 1.23 µM.
In the case of `CN(C)CCCNC(=O)c1cncnc1Nc1ccc(OCc2cccc(F)c2)c(Cl)c1`, the GI50 in test [1] was 1.56 µM; in test [8], 2.08 µM; in test [3] it was 1.64 µM; in test [4], 1.7 µM; in test [5], 1.46 µM; in test [6], 1.66 µM. For the same compound, the GI50 in test [7] was 1.49 µM. Further, the TGI in test [1] worked out at 3.06 µM; in test [8], 4.07 µM; in test [3] it was 3.22 µM; in test [4], 3.1 µM; in test [5] it was 2.77 µM; in test [6] it was 3.26 µM. This compound came in with a TGI in test [7] of 2.88 µM.
On to `O=C1OC(c2ccccc2)(c2cc(Br)c(O)c(Br)c2)c2ccccc21` (centres undefined), for which the GI50 in test [1] was 23.8 µM; in test [2], 26 µM; in test [3], 20.3 µM; in test [4], 17.5 µM; in test [5] it was 15.6 µM; in test [6], 16.9 µM. The GI50 in test [7] was 18.1 µM. The TGI in test [1] is 78.7 µM; in test [2], above 100 µM; in test [3], 72 µM; in test [4], 59.1 µM; in test [5] it was 42.3 µM; in test [6] it was 38 µM. Further, the TGI in test [7] came out at 36.4 µM.
On to `CCCCCCc1nc2nc(Cl)c(Cl)nc2[nH]1`, for which the GI50 in test [1] is 4.08 µM; in test [8] it was 5.58 µM; in test [2] it was 8.98 µM; in test [5], 4.88 µM; in test [6], 6.44 µM; in test [7], 4.01 µM. Moreover, the TGI in test [1], in test [8], in test [2], in test [5], in test [6] and in test [7] was above 100 µM each time.

(Values after PubChem BioAssay (NCI).)
